What all share (assay): MIC in agar
Common to all, as to type: cell-based

In experiment [1] the test system is Staphylococcus aureus Russell. From the text: (§1) a. Antibacterial effectiveness of compounds of
(§2) Examples 6 and 7 in agar.
(§3) (μg/ml) in agar of compound

The subject of experiment [2] is Salmonella typhimurium CT10. Conditions: for MIC: Salmonella enterica.
Text: as §1, §2, §3

The next experiment has as its system Streptococcus faecalis I. Conditions: for MIC: Enterococcus faecalis.
Text: as §1, §2, §3

In experiment [3] the test system is Staphylococcus aureus 1517.
Text: as §1, §2, §3

The next experiment relates to Escherichia coli 0111.
Text: as §1, §2, §3

For the next experiment, the system named is Proteus rettgeri WM16. Conditions: for MIC: Providencia rettgeri.
Text: as §1, §2, §3

The subject of the next experiment is Bacillus subtilis A. Conditions: for MIC: Bacillus subtilis.
Text: as §1, §2, §3

The next experiment concerns Klebsiella aerogenes A.
Text: as §1, §2, §3

The subject of the next experiment is Proteus vulgaris W091.
Text: as §1, §2, §3

The subject of a further experiment is Escherichia coli JT39.
Text: as §1, §2, §3

Experiment [4] deals with Streptococcus pyogenes CN10.
Text: as §1, §2, §3

A further experiment relates to Pseudomonas aeruginosa A.
Text: as §1, §2, §3

Experiment [5] has as its system Staphylococcus aureus Oxford.
Text: as §1, §2, §3

The next experiment concerns Enterobacter cloacae N1.
Text: as §1, §2, §3

The test system of the next experiment is Serratia marcescens US20.
Text: as §1, §2, §3

Another experiment relates to Shigella sonnei MB 11967. Conditions: for MIC: MB11967.
Text: as §1, §2, §3

A further experiment relates to Proteus morganii 1580. Conditions: for MIC: Morganella morganii.
Text: as §1, §2, §3

A further experiment has as its system Proteus mirabilis C977.
Text: as §1, §2, §3

In another experiment the test system is Citrobacter freundii E8.
Text: as §1, §2, §3

The test system of a further experiment is E. coli ESS. Conditions: Escherichia coli. From the text: | (μg/ml) in agar of compound
The mark [6] stands for this setting: in agar, Staphylococcus aureus Russell, read-out: M.I.C.
Setting [7] is: in agar, Salmonella typhimurium CT10, read-out: M.I.C.
The mark [8] stands for this setting: in agar, Streptococcus faecalis I, read-out: M.I.C.
[9] abbreviates: in agar, Staphylococcus aureus 1517, read-out: M.I.C.
The mark [10] stands for this setting: in agar, Proteus rettgeri WM16, read-out: M.I.C.
Setting [11] is: in agar, Klebsiella aerogenes A, read-out: M.I.C.
Setting [12] is: in agar, Proteus vulgaris W091, read-out: M.I.C.
The mark [13] stands for this setting: in agar, Escherichia coli JT39, read-out: M.I.C.
Setting [14] is: in agar, Pseudomonas aeruginosa A, read-out: M.I.C.
Setting [15] is: in agar, Staphylococcus aureus Oxford, read-out: M.I.C.
Setting [16] is: in agar, Enterobacter cloacae N1, read-out: M.I.C.
The mark [17] stands for this setting: in agar, Serratia marcescens US20, read-out: M.I.C.
The mark [18] stands for this setting: in agar, Proteus morganii 1580, read-out: M.I.C.
[19] abbreviates: in agar, Proteus mirabilis C977, read-out: M.I.C.
Where [20] appears, read: in agar, Citrobacter freundii E8, read-out: M.I.C.

Consider 4 molecules from patent publication US4473578A, “β-Lactam antibiotics and their use” (Beecham Group Limited, priority 1979, dated 1984).

Converted amounts (≈) assume the structure as drawn. Structures can show the parent of a compound that is named as a salt. Where two headings read alike, the source gives them in different places.

On to `CSC1=C(C(=O)[O-])N2C(=O)[C@H]([C@H](C)O)[C@H]2C1.[Na+]` [Example 6, Sodium (5R, 6S)-3-methylthio-6-[(S)-1-hydroxyethyl]-7-oxo-1-azabicyclo[3.2.0]hept-2-ene-2-carboxylate], for which the MIC in experiment [1] (Staphylococcus aureus) was 6.2 µg/mL; in experiment [2] (TYPHIMURIUM), 12.5 µg/mL; in the experiment on Streptococcus faecalis I, more than 100 µg/mL; in experiment [3] (Staphylococcus aureus, 1517) it was 100 µg/mL; against Escherichia coli 0111, 12.5 µg/mL; against Proteus rettgeri WM16 (WM16) it was 25 µg/mL. In addition, the MIC is 25 µg/mL in the experiment with Bacillus subtilis A; 12.5 µg/mL against Klebsiella aerogenes A (Klebsiella aerogenes); 25 µg/mL with Proteus vulgaris W091 (Proteus vulgaris, W091); 12.5 µg/mL with Escherichia coli JT39 (Escherichia coli, JT39); 25 µg/mL in experiment [4] (Streptococcus pyogenes, CN10); more than 100 µg/mL with Pseudomonas aeruginosa A (Pseudomonas aeruginosa). Further, the MIC turned out to be 3.1 µg/mL in experiment [5] (Staphylococcus aureus); 28 µg/mL against Enterobacter cloacae N1 (Enterobacter cloacae, N1); 12.5 µg/mL in the experiment with Serratia marcescens US20 (Serratia marcescens, US20); 12.5 µg/mL against Shigella sonnei MB 11967; 25 µg/mL against Proteus morganii 1580 (1580); 50 µg/mL against Proteus mirabilis C977 (Proteus mirabilis, C977). The same molecule gave an MIC against Citrobacter freundii E8 (Citrobacter freundii, E8) of 12.5 µg/mL.
Consider `CCSC1=C(C(=O)[O-])N2C(=O)[C@H]([C@H](C)O)[C@H]2C1.[Na+]` [Example 7], for which the M.I.C. is 1.2 µg/mL in experiment [1] (in agar, Staphylococcus aureus Russell); 2.5 µg/mL in experiment [2] (in agar, Salmonella typhimurium CT10); more than 50 µg/mL with Streptococcus faecalis I (in agar, Streptococcus faecalis I); 5.0 µg/mL in the experiment with Escherichia coli 0111; 5.0 µg/mL in the experiment with Proteus rettgeri WM16 (in agar, Proteus rettgeri WM16); 5.0 µg/mL in the experiment with Bacillus subtilis A (in agar, Bacillus subtilis A). Further, the M.I.C. in the experiment with Klebsiella aerogenes A (in agar, Klebsiella aerogenes A) was 2.5 µg/mL; in the experiment on Proteus vulgaris W091 (in agar, Proteus vulgaris W091) it was 5.0 µg/mL; in the experiment on Escherichia coli JT39 (in agar, Escherichia coli JT39) it was 2.5 µg/mL; in [4] (in agar, Streptococcus pyogenes CN10), 1.2 µg/mL; in the experiment on Pseudomonas aeruginosa A (in agar, Pseudomonas aeruginosa A), more than 50 µg/mL; in experiment [5] (in agar, Staphylococcus aureus Oxford), 1.2 µg/mL. In addition, the M.I.C. in the experiment with Enterobacter cloacae N1 (in agar, Enterobacter cloacae N1) was 5.0 µg/mL; with Serratia marcescens US20 (in agar, Serratia marcescens US20), 5.0 µg/mL; in the experiment on Shigella sonnei MB 11967, 5.0 µg/mL; with Proteus morganii 1580 (in agar, Proteus morganii 1580), 2.5 µg/mL; with Proteus mirabilis C977 (in agar, Proteus mirabilis C977) it was 12.5 µg/mL; in the experiment on Citrobacter freundii E8 (in agar, Citrobacter freundii E8), 2.5 µg/mL.
On to `C[C@H](O)[C@H]1C(=O)N2C(C(=O)O)=C(S/C=C\C(=O)OCCN)C[C@H]12` [Example 18, (5R,6S)-3-[2-(Z)-(2-Aminoethoxycarbonyl)ethenylthio]-6-[(S)-1-hydroxyethyl]-7-oxo-1-azabicyclo[3.2.0]hept-2-ene-2-carboxylic acid], for which the MIC in [1] (setting [6]) was found to be 0.4 µg/mL (≈ 1.17 µM); in [2] (setting [7]), 3.1 µg/mL (≈ 9.05 µM); with Streptococcus faecalis I (setting [8]) it was 12.5 µg/mL (≈ 36.5 µM); in experiment [3] (setting [9]), 6.2 µg/mL (≈ 18.1 µM); in the experiment with Escherichia coli 0111, 3.1 µg/mL (≈ 9.05 µM); in the experiment with Proteus rettgeri WM16 (setting [10]), 6.2 µg/mL (≈ 18.1 µM). The MIC in the experiment on Klebsiella aerogenes A (setting [11]) is 3.1 µg/mL (≈ 9.05 µM); in the experiment with Proteus vulgaris W091 (setting [12]) it was 6.2 µg/mL (≈ 18.1 µM); in the experiment with Escherichia coli JT39 (setting [13]), 3.1 µg/mL (≈ 9.05 µM); in [4] (in agar, Streptococcus pyogenes CN10, read-out: M.I.C.), not above 0.1 µg/mL; in the experiment on Pseudomonas aeruginosa A (setting [14]) it was 25 µg/mL (≈ 73 µM); in experiment [5] (setting [15]) it was not above 0.1 µg/mL. Moreover, the MIC in the experiment on Enterobacter cloacae N1 (setting [16]) was 3.1 µg/mL (≈ 9.05 µM); with Serratia marcescens US20 (setting [17]), 1.2 µg/mL (≈ 3.5 µM); against Shigella sonnei MB 11967 it was 3.1 µg/mL (≈ 9.05 µM); with Proteus morganii 1580 (setting [18]), 3.1 µg/mL (≈ 9.05 µM); in the experiment on Proteus mirabilis C977 (setting [19]) it was 12.5 µg/mL (≈ 36.5 µM); in the experiment on Citrobacter freundii E8 (setting [20]), 3.1 µg/mL (≈ 9.05 µM). In addition, in the experiment with E. coli ESS, the MIC stood at 1 µg/mL (≈ 2.92 µM).
Take `C[C@H](OS(=O)(=O)O)[C@@H]1C(=O)N2C(C(=O)O)=C(S/C=C\C(=O)O)C[C@H]12` [Example 22, The Trisodium salt of (5R,6R)-3-[(Z)-2-carboxyethenylthio]-6-[(S)-1-hydroxysulphonyloxyethyl]-7-oxo-1-azabicyclo[3.2.0]hept-2-ene-2-carboxylic acid]: the MIC is 2.5 µg/mL in experiment [1] (setting [6]); 1.2 µg/mL in experiment [2] (setting [7]); 12.5 µg/mL with Streptococcus faecalis I (setting [8]); 25 µg/mL in experiment [3] (setting [9]); 1.2 µg/mL in the experiment on Escherichia coli 0111; 1.2 µg/mL with Proteus rettgeri WM16 (setting [10]). Moreover, the MIC in the experiment with Bacillus subtilis A is 0.5 µg/mL; in the experiment with Klebsiella aerogenes A (setting [11]), 1.2 µg/mL; with Proteus vulgaris W091 (setting [12]), 1.2 µg/mL; with Escherichia coli JT39 (setting [13]) it was 1.2 µg/mL; in the experiment with Pseudomonas aeruginosa A (setting [14]) it was more than 50 µg/mL; in experiment [5] (setting [15]), 2.5 µg/mL. The MIC in the experiment on Enterobacter cloacae N1 (setting [16]) stood at 0.5 µg/mL; in the experiment on Serratia marcescens US20 (setting [17]), 5 µg/mL; in the experiment on Shigella sonnei MB 11967, 1.2 µg/mL; in the experiment on Proteus morganii 1580 (setting [18]) it was 0.5 µg/mL; in the experiment with Proteus mirabilis C977 (setting [19]), 1.2 µg/mL; in the experiment on Citrobacter freundii E8 (setting [20]), 25 µg/mL. In the experiment on E. coli ESS, this molecule yielded an MIC of 1.2 µg/mL.
